This test concerns the target T1, LASV FD (Lassa virus fusion domain, G260-N295) (Lassa virus Josiah, UniProt P08669).
T1 construct: gene GPC
As to the kind of experiment: biochemical. In kind it is binding.

In general, Kd refers to the constant that tells how readily two partners part at equilibrium. A lower Kd goes with higher affinity.

T1 sequence (P08669 260-295 limits assumed): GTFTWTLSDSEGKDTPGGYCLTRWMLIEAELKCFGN

For `CCCCCCCC/C=C\CCCCCCCC(=O)O[C@H](COC(=O)CCCCCCCCCCCCCCC)COP(=O)([O-])OCC[N+](C)(C)C` [POPC, 1-palmitoyl-2-oleoyl-glycero-3-phosphocholine], the dissociation constant Kd came out at 657 ± 17 µM.

For the origin of these results see paper PMC13351859 (Biophysical Journal, 2026).
